Series [1] concerns the target T1, tau hexapeptide VQIVYK (Homo sapiens, UniProt P10636).
T1 construct: 306VQIVYK311(15 μM), ThS, VQIVYK+heparin
The series can be described thus: Heparin-induced aggregation of tau hexapeptide VQIVYK, fluorescence assay. It is filed as biochemical. The following applies: VQIVYK 15 μM, Figure S15. The source says:
The carbonyl group in five-membered ring A in IPP1 forms a hydrogen bond with the amino group on glutamine (GLN307), valine (VAL309), and tyrosine (TYR310). The nitrogen atom in pyridine ring C in IPP1 also forms a hydrogen bond with the amino group of isoleucine (ILE308). Pyridine ring C on IPP1 forms π–π stacking with the benzene ring on TYR310. The five-membered ring A in IPP1 also forms hydrophobic contacts with glycine (GLY304), VAL306, and VAL309, which further increases the interaction between the molecule IPP1 and tau. […] Visually, IPP1 is like a molecular clip that firmly holds the key region, preventing the peptide from freely curling/folding and increasing the possibility to inhibit aggregation. […] As a result, the effective interactions between these compounds and tau peptide chains are much less than those of IPP1. […] To verify the docking results, we directly applied IPP1 to the aggregation of tau hexapeptide VQIVYK (Figure S15). […] The positive experimental results of IPP1 inhibition on tau hexapeptide further confirmed the reliability of our theoretical speculation on the target segment. […]
17. The fluorescence spectra of peptide fragments systems in the presence or absence of IPP1
Figure S15. The fluorescence spectra of peptide fragments systems containing […]

Series [2] concerns SK-N-SH cells. The series can be described thus: CCK-8 cell survival assay. It is filed as cell-based, human. The following applies: 24 h; for cytotoxicity (in words): different concentrations, SK-N-SH cells. How it is done:
After the above-mentioned systematic study of SAR at the molecular level, we wondered whether these inhibitory effects can be reproduced in the actual biological system, laying the foundation for the discovery of drug lead compounds. Therefore, the cytotoxicity and inhibitory effects of these synthetic compounds were evaluated by human neuroblastoma SK-N-SH cells. […] The cell viability of SK-N-SH was assessed using a cell counting kit-8 (CCK-8) assay.[48] It could be seen that the cell survival rate was still higher than 70% when the concentration of IPP1 reached 30 μM. […]
11. In Vitro Cellular Uptake and Cell Cytotoxicity.
Cell viability was assessed using Cell Counting Kit-8 (CCK-8) assay following the manufacturer’s instructions. SK-N-SH cells were seeded at a density of 2.0 × 10^4 cells per well in a 96-well plate and incubated for 24 h to adhere in a humidified chamber. Then, the cells were treated with various concentrations of compounds IPP1~IPP4 for 24 h. After that, the culture supernatants were removed, and 90 μL of medium and 10 μL of CCK-8 solution were then added. After further incubation for 3 h at 37 °C, the absorbance was measured at 450 nm using Microplate Reader 581 (SpectraMax iD3). Six replicates were used in each group.
12. In Vitro Evaluation of Inhibitory Effects of Inhibitor on Tau Aggregation In SK-N-SH Cell.
The effect of inhibitors on the formation of aggregate tau in SK-N-SH was tested by using the previously reported method15. First, SK-N-SH was grown on glass coverslips in 12-well plate at a […]
In general terms: Formazan colour is commonly taken as a measure of viable cells.

Molecules are shown by their SMILES.

`O=C1Nc2cccc(-c3ccc(N4CCCC4)nc3)c2C1=O` [IPP1, 4-(6-(pyrrolidin-1-yl)pyridin-3-yl)indoline-2,3-dione]: the “aggregation of tau hexapeptide induced by heparin” value in series [1] was “significantly reduced the aggregation of tau hexapeptide”. Moreover, the cell survival rate entry in series [2] (30 μM, tau-infected SK-N-SH cells) is “higher than 70%”. Besides, the “cytotoxicity (in words)” value in series [2] is listed as “relatively low cytotoxicity”.

Take `O=C1Nc2ccc(-c3ccc(N4CCCC4)nc3)cc2C1=O` [IPP2, 5-(6-(pyrrolidin-1-yl)pyridin-3-yl)indoline-2,3-dione]: the “cytotoxicity (in words)” value in series [2] was “lowest cytotoxicity”.

For the molecule `O=C1Nc2cc(-c3ccc(N4CCCC4)nc3)ccc2C1=O` [IPP3, 6-(6-(pyrrolidin-1-yl)pyridin-3-yl)indoline-2,3-dione], the “cytotoxicity (in words)” value in series [2] is “toxicity is not negligible”.
